Measurements: patent US20170049717A1, “DRUG FOR TREATMENT OF TINNITUS PATIENTS” (KYORIN PHARMACEUTICAL CO., LTD., priority 2014, published 2017)

Experiments:
[1] = tested on: patients with tinnitus associated with sudden hearing loss; assay: 24-week, placebo controlled, randomized, double-blind comparative trial; TRSw score; type: in vivo, human; conditions: for Change in TRSw score, Neramexane: least mean squares (MMRM)
Protocol: Film coated tablets comprising 12.5 mg neramexane mesylate were produced by the method disclosed in International Patent Publication No. WO2009/033649.
The efficacy of neramexane mesylate on patients with tinnitus associated with sudden hearing loss was evaluated in a 24-week, placebo controlled, randomized, double-blind comparative trial.
The film coated tablets comprising 12.5 mg neramexane mesylate or placebo tablets were administered for 24 weeks to patients having tinnitus. The dosage was started from 12.5 mg/day, and gradually increasing the dose to 50 mg/day over 4 weeks, and maintaining the same dose thereafter.
The therapeutic effect of neramexane mesylate for the patients was evaluated using the TRSw score. Also, the state of anxiety or depression of the patients was evaluated using the HADS score. Statistical analysis was performed using a mixed-effect model repeated measure (MMRM) taking into consideration the covariance structure of error for the patient, with the change in TRSw score from before administration of neramexane mesylate tablets or placebo tablets (0 weeks) to each evaluation time point as the response variable, and with the drug-administered group, evaluation time point, interaction between drug-administered group and evaluation time point, 0-week TRSw score, gender and body weight as […]. The numerical values in the table represent least mean squares for the change in TRSw score at 16 weeks after administration and 24 weeks after administration. A change in score of less than 0 indicates a higher therapeutic effect.

[2] = target: α9/α10 nicotinic acetylcholine receptors (Rattus norvegicus, UniProt P43144+Q9JLB5); conditions: Plazas, et al., Eur J Pharmacol., 2007; cited from earlier work
Chain of α9/α10 nicotinic acetylcholine receptors (P43144 26-479): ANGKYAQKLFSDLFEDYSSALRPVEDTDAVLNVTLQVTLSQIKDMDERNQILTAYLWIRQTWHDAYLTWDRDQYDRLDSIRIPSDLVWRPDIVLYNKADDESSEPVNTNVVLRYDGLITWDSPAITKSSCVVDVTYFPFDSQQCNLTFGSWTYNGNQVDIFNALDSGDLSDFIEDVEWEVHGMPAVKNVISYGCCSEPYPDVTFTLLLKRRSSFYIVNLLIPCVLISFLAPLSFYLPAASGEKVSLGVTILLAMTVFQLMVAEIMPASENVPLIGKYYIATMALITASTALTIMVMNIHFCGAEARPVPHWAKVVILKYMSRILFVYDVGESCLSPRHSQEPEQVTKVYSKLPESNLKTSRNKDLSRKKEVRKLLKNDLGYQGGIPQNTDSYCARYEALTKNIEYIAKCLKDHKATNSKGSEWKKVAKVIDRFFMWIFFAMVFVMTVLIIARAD
Chain of α9/α10 nicotinic acetylcholine receptors (Q9JLB5 25-447): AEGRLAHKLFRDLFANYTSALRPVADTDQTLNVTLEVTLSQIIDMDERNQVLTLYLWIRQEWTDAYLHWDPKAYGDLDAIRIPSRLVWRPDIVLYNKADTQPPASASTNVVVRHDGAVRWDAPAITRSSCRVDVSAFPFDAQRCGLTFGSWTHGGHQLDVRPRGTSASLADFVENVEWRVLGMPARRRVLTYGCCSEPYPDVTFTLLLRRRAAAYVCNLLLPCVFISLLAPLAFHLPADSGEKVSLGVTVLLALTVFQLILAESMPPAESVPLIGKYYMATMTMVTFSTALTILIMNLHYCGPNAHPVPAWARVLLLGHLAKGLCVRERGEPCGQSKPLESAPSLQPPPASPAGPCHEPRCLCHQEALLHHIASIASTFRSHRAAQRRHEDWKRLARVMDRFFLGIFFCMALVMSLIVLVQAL

5-HT3 receptors = target: T1, 5-HT3 receptors (Homo sapiens, UniProt P46098); conditions: cited from earlier work
T1 sequence (P46098 24-478): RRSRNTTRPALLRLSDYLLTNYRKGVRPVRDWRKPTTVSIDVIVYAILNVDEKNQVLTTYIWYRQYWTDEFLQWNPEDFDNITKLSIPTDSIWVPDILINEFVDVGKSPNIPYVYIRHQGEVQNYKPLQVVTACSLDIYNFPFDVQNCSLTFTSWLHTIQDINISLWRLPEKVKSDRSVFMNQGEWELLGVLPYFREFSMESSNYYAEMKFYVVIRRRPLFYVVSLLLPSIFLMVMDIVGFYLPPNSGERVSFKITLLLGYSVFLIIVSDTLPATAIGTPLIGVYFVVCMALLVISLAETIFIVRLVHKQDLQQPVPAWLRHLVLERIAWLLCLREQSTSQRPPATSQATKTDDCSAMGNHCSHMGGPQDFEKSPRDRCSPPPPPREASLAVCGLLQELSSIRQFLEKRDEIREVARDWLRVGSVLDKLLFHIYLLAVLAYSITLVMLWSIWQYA

[3] = sudden hearing loss, together with HADS (anxiety) of >10
[4] = sudden hearing loss, together with HADS (depression) of >10
[5] = sudden hearing loss, together with morbidity period of 48 months or longer
[6] = sudden hearing loss, together with suffering period of less than 6 months

**Q.** Which “Change in TRSw score, Neramexane − placebo” value (shortened to “Change … Neramexane − placebo”) ([1]; Tinnitus associated with sudden hearing loss) does the source give for `CC1(C)CC(C)(C)CC(C)(N)C1` [Neramexane, 1-amino-1,3,3,5,5-pentamethylcyclohexane] here?
**A.** −1.8

**Q.** What about the therapeutic effect ([1]; group with a depression value of greater than 10 according to HADS) of the same compound?
**A.** unexpectedly excellent therapeutic effect

**Q.** And the therapeutic effect ([1]; group with a morbidity period of 48 months or longer)?
**A.** unexpectedly excellent therapeutic effect

**Q.** And the therapeutic effect ([1]; group with a suffering period of shorter than 6 months)?
**A.** unexpectedly excellent therapeutic effect

**Q.** And the therapeutic effect ([1]; group with an anxiety value of greater than 10 according to HADS)?
**A.** unexpectedly excellent therapeutic effect

**Q.** What about the “Change in TRSw score, Neramexane” value ([1]; change from 0 weeks, up to 50 mg/day, Tinnitus associated with sudden hearing loss) of the same compound?
**A.** −2.3

**Q.** What about the “Change in TRSw score, Neramexane” value [1, 3] of the same compound?
**A.** −2.4

**Q.** And the “Change in TRSw score, Neramexane” value [1, 4]?
**A.** −3.1

**Q.** And the “Change in TRSw score, Neramexane” value [1, 5]?
**A.** −4.0

**Q.** What about the “Change in TRSw score, Neramexane” value [1, 6] of the same compound?
**A.** −3.7

**Q.** And the “therapeutic effect compared to placebo” value ([1]; patients affected by tinnitus associated with sudden hearing loss)?
**A.** clear therapeutic effect

**Q.** And the “Change … Neramexane − placebo” value [1, 3]?
**A.** −3.7

**Q.** What about the “Change … Neramexane − placebo” value [1, 4] of the same compound?
**A.** −3.7

**Q.** And the “Change … Neramexane − placebo” value [1, 5]?
**A.** −4.2

**Q.** And the “Change … Neramexane − placebo” value [1, 6]?
**A.** −3.8

**Q.** What about the “inhibiting activity on α9/α10 nicotinic acetylcholine receptors” value [2] of the same compound?
**A.** exhibits inhibiting activity

**Q.** And the “inhibiting activity on 5-HT3 receptors” value (5-HT3 receptors)?
**A.** exhibits inhibiting activity
